What all share (experiment): NCI anticancer screen, dose series, 48 h
The test system of experiment [1] is HT29 colon.
Experiment [2] deals with KM12 colon.
In experiment [3] the test system is NCI-H522 lung.
The subject of experiment [4] is MDA-MB-435.
In experiment [5] the test system is U251 CNS.
The test system of experiment [6] is OVCAR-5 ovarian.
For experiment [7], the system named is OVCAR-4 ovarian.
For experiment [8], the system named is UO-31 renal.
Experiment [9] has as its system LOX IMVI melanoma.
Experiment [10] has as its system ACHN renal.

The text below walks through data of PubChem BioAssay (NCI).

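Grown in 96-well plates, cells were treated for 48 hours with each compound at five concentrations. Insufficient inhibition: endpoint recorded as highest concentration tested. Here, GI50 denotes the concentration required for 50% inhibition of growth. TGI: concentration producing complete growth inhibition.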

Regarding `COc1ccc(C(=O)/C=C/c2ccc(Cl)cc2)cc1S(N)(=O)=O`, the GI50 in experiment [1] was 3.27 µM; in experiment [2], 1.73 µM; in experiment [3], 1.93 µM; in experiment [4], 4.34 µM; in experiment [5], 1.96 µM; in experiment [6], 3.08 µM. For the same compound, the GI50 was 3.46 µM in [7], 1.89 µM in experiment [8], 1.28 µM in experiment [9] and 1.94 µM in [10]. The TGI in experiment [1] was found to be 10.5 µM; in [2], 3.78 µM; in experiment [3], 4.51 µM; in [4] it was 15.6 µM; in experiment [5], 4.27 µM; in experiment [6] it was 13.8 µM. The TGI in [7] came out at 12.6 µM; in experiment [8], 5.76 µM; in experiment [9], 2.65 µM; in experiment [10], 4.12 µM.

As for `C1=C[C@@H]2c3ccc4cnccc4c3NC[C@@H]2C1`, the TGI in experiment [2], in [4], in experiment [5], in [6], in experiment [8] and in [10] was greater than 100 µM throughout.

Consider `COc1ccc(CCNc2nc3ccccc3c3[nH]c4ccccc4c23)cc1OC`, for which the GI50 was 2.04 µM in [1]; 1.53 µM in experiment [2]; 1.72 µM in experiment [4]; 2.97 µM in experiment [5]; 3.48 µM in experiment [6]; 3.15 µM in experiment [7]. In addition, the GI50 is 2.28 µM in experiment [9] and 3.91 µM in [10]. Also, the TGI in [1] stood at 6.32 µM; in [2] it was 3.58 µM; in experiment [4] it was 3.37 µM; in experiment [5] it was 10.3 µM; in experiment [6] it was 11.6 µM; in experiment [7], 12.8 µM. For the same compound, the results for the TGI in experiment [9] and in [10] were 5.38 µM and 17.1 µM, respectively.

As to `CCN(CC)CCn1c(=N)n(CC(O)c2ccc(Cl)c(Cl)c2)c2ccccc21` (stereo unspecified), the GI50 in experiment [1] is 3.3 µM; in [2] it was 9.86 µM; in [4], 1.75 µM; in [5], 2.82 µM; in [6], 10.7 µM; in experiment [7], 10.6 µM. Also, the GI50 in [8] is 6.97 µM; in experiment [9], 6.14 µM; in experiment [10] it was 11.9 µM. In addition, the TGI in experiment [1] stood at 12.1 µM; in [2] it was 22.2 µM; in experiment [4] it was 3.49 µM; in experiment [5], 9.04 µM; in experiment [6] it was 22.8 µM; in experiment [7], 24.3 µM. In addition, the TGI in experiment [8] came out at 20.4 µM; in experiment [9], 20.3 µM; in experiment [10], 24.4 µM.

Regarding `Cn1cc(-c2ccc3cc(-c4ccc(CC(=O)Nc5cc(C(C)(C)C)nn5C)cc4)cnc3c2)cn1`, the GI50 in experiment [1] was 0.377 µM; in experiment [2], 0.0233 µM; in experiment [3], 0.251 µM; in [4] it was 0.309 µM; in experiment [5], 0.236 µM; in [6], 0.606 µM. Also, the figures for the GI50 in [7], in experiment [9] and in [10] were 0.159 µM, 0.284 µM and 0.11 µM, respectively. In addition, the TGI in [1], in [2], in experiment [3], in [4], in experiment [5] and in experiment [6] was greater than 100 µM in each case. In addition, the TGI in experiment [7], in experiment [9] and in experiment [10] was greater than 100 µM each time.

Consider `CC1(CCCC2(C)CCNC2=O)OCCO1` (stereo unspecified), for which the TGI in experiment [1], in [2], in [4], in [5], in experiment [6] and in experiment [7] was greater than 10 µM in each case. For the same compound, the TGI in experiment [8], in experiment [9] and in experiment [10] was greater than 10 µM in each case.

Regarding `CC1CN(CCO)CC(C)O1` (stereo unspecified), the TGI in experiment [1], in experiment [2], in experiment [3], in [4], in experiment [5] and in [6] was greater than 100 µM in each case. In addition, the TGI in experiment [7], in experiment [8] and in experiment [10] was greater than 100 µM each time.

For `COc1ccc(C2SC(N)=Nc3c2c(C)nn3C(=O)c2ccncc2)cc1` (stereo unspecified), the TGI in [1], in [2], in experiment [4], in experiment [5], in [6] and in experiment [7] was greater than 100 µM in each case. For the same compound, the TGI in [8], in [9] and in experiment [10] was greater than 100 µM each time.

In the case of `CCC12C=CCN3CC[C@]4(C(=C(C(=O)OC)[C@@H]1Nc1ncnc5c1ncn5C1OC(COC(C)=O)C(OC(C)=O)C1OC(C)=O)Nc1ccccc14)C32` (stereo partly specified), the TGI in [1] turned out to be 4.88 µM; in experiment [2], 5.51 µM; in experiment [3], 3.12 µM; in experiment [5] it was 4.91 µM; in experiment [6], 8.94 µM; in [7], 5.23 µM. The TGI turned out to be 13.2 µM in experiment [8], 3.25 µM in [9] and 5.69 µM in [10].

As for `[N-]=[N+]=Nc1ccc(S(=O)(=O)Oc2cc(OS(=O)(=O)c3ccc(N=[N+]=[N-])cc3)cc(OS(=O)(=O)c3ccc(N=[N+]=[N-])cc3)c2)cc1`, the TGI is greater than 100 µM in experiment [1]; greater than 100 µM in experiment [2]; greater than 100 µM in [3]; greater than 100 µM in experiment [5]; greater than 100 µM in experiment [6]; greater than 10 µM in [7]. Further, the TGI was greater than 100 µM in [8], greater than 100 µM in experiment [9] and greater than 10 µM in experiment [10].

In the case of `Cc1c2c(n3c(nc4ccccc43)c1C#N)SCC2`, the TGI in experiment [1], in [2], in [4], in experiment [5], in experiment [6] and in [7] was greater than 10 µM in each case. For the same compound, the TGI in [8], in experiment [9] and in experiment [10] was greater than 10 µM throughout.

With `CC(C)c1ccc2c(c1)CCC1C(C)(C)[C@@H](O)CC[C@]21C` (stereo partly specified), the TGI is 30 µM in experiment [1]; 71.5 µM in [2]; 79 µM in experiment [3]; 52.2 µM in experiment [5]; 41.7 µM in experiment [6]; greater than 100 µM in [7]. Besides, the TGI in experiment [8] was greater than 100 µM; in experiment [9] it was 28.8 µM; in experiment [10] it was greater than 100 µM.
